Assay results as given in US5409941A, “5-heteroyl indole derivatives” (Pfizer Inc., priority 1993, dated 1995).

Target: T1, 5-HT1D (Bos taurus, UniProt F1MGM3)
T1 construct: from tissue
Experiment: 5-HT1D activity, method of R. E. Heuring and S. J. Peroutka
Type: binding
Conditions: not given
Description: The active compounds of the invention are evaluated as anti-migraine agents by testing the extent to which they mimic sumatriptan in contracting the dog isolated saphenous vein strip (P. P. A. Humphrey et al., Br. J. Pharmacol., 94, 1128 (1988)). This effect can be blocked by methiothepin, a known serotonin antagonist. Sumatriptan is known to be useful in the treatment of migraine and produces a selective increase in carotid vascular resistance in the anaesthetized dog. […] The active compounds are also evaluated using the method of R. E. Heuring and S. J. Peroutka (J. Neuroscience, 7, 894 (1987)).

T1 sequence (F1MGM3 1-403): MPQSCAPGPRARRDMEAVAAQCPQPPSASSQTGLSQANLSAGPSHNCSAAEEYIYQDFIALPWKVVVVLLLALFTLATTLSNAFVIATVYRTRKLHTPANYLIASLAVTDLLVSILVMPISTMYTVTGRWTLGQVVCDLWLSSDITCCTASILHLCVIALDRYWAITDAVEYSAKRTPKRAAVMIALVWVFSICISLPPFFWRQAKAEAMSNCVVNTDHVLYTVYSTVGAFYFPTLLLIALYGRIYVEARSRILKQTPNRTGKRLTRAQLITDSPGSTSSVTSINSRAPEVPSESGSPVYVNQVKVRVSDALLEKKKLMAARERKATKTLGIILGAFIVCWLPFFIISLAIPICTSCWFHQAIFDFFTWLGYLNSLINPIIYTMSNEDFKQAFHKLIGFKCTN

| SMILES | IC50 [nM] |
| --- | --- |
| Cc1nc(-c2ccc3[nH]cc(C4=CCNCC4)c3c2)cs1 [Example 20, 4-[3-(1,2,5,6-Tetrahydropyrid-4-yl)indol-5-yl]-2-methylthiazole] | ≥ 1000 |
| Cc1csc(Cc2ccc3[nH]cc(C4=CCNCC4)c3c2)n1 [Example 26, 2-[3-(1,2,5,6-Tetrahydropyrid-4-yl)indol-5-ylmethyl]-4-methylthiazole] | ≥ 1000 |

Same assay, conditions: method of Heuring and Peroutka, J. Neuroscience, 7, 894 (1987); read-out: IC50 (5-HT1D activity)

| SMILES | IC50 [nM] |
| --- | --- |
| CN(C)CCc1c[nH]c2ccc(-c3nccs3)cc12 [Example 7, 2-[3-(N,N-Dimethylaminoethyl)indol-5-yl]thiazole] | ≥ 1000 |
| CN(C)CCc1c[nH]c2ccc(-c3nc(CNc4ccccc4)cs3)cc12 [Example 13, 2-[3-(N,N-Dimethylaminoethyl)-indol-5-yl]-4-(phenylaminomethyl)thiazole] | ≥ 1000 |
| CN(C)CCc1c[nH]c2ccc(-c3nc(COc4ccccc4)cs3)cc12 [Example 15A, 2-[3-(N,N-Dimethylaminoethyl)indol-5-yl]-4-(phenoxymethyl)thiazole] | ≥ 1000 |
| CN(C)CCc1c[nH]c2ccc(-c3nc(CSc4ccccc4)cs3)cc12 [Example 15B, 2-[3-(N,N-Dimethylaminoethyl)indol-5-yl)-4-(thiophenoxymethyl)thiazole] | ≥ 1000 |
| CN1CCC(c2c[nH]c3ccc(-c4nc(CNc5ccccc5)cs4)cc23)CC1 [Example 28, 2-[3-(1-Methylpiperidin-4-yl)indol-5-yl]-4-(phenylaminomethyl)thiazole] | ≥ 1000 |
